Data: article PMC10064330, “Reversible Dual-Covalent Molecular Locking of the 14-3-3/ERRγ Protein–Protein Interaction as a Molecular Glue Drug Discovery Approach” (Journal of the American Chemical Society, 2023)

Biological target: T1, 14-3-3γ/ERRγ complex (Homo sapiens, UniProt P61981+P62508)
T1 construct: made in house; host or cells: E. coli NiCo21 (DE3)
Assay: Time-dependent intact MS in competitive mixture of nine client phosphopeptides
Format: biochemical
Source text: 14-3-3 proteins interact with many phosphorylated proteins, with differing affinities and cellular concentrations.[44],[49],[50] On the cellular level, there is a large reservoir of 14-3-3, typically in vast excess to its binding partners. Notwithstanding, we were interested in developing a testable model for the effect of the molecular locking on a PPI network. To investigate the intricacies of selective stabilization of the 14-3-3/ERRγ interaction in a complex matrix, we performed time-dependent intact MS experiments in a competitive environment of excess of 14-3-3 client phosphopeptides. A mixture of 14-3-3 (1 eq.), molecular lock 5 (10 eq.), ΕRRγ (2 eq.), and eight additional client phosphopeptides (8 × 2 eq.) was incubated, and incremental samples were taken, quenched with sodium cyanoborohydride, and measured (Figure 5). […] The peptide panel contained four higher-affinity and three lower-affinity 14-3-3 binding clients, relative to ERRγ, (Figure 5b) and contained +1 Cys-containing peptides RND3 and PKR.
Figure S23a. QTOF-MS analysis of 14-3-3/peptide mix/5. […] Calculated mass 14-3-3γ apo:
31542.8 Da. Calculated mass covalently crosslinked 14-3-3γ/ERRγ/5 complex: 33019.5 Da. […]
Different Scanning Fluorimetry (DSF) assays were performed using 40 µL samples containing 5 µM 14-3-3γ, 50 µM ERRγ pS179 9-mer peptide, 200 µM compound (or 1% DMSO) and 5x ProteoOrange (Lumiprobe, 5000x stock in DMSO) in 10 mM Hepes, 150 mM NaCl, 50 µM TCEP (pH 8.0). […] Fluorescence intensity was determined using excitation 470/40 nm and emission 570/20 nm filters. Based on these melting curves, the negative derivative melting curve is obtained from which the melting temperature Tm was determined. ΔTm values represent the differences in melting temperature relative to the DMSO control. All described melting temperatures are based on three independent experiments from which the average and standard deviations were determined using excel. […]

T1 sequence (P61981 whole entry, other chains not shown): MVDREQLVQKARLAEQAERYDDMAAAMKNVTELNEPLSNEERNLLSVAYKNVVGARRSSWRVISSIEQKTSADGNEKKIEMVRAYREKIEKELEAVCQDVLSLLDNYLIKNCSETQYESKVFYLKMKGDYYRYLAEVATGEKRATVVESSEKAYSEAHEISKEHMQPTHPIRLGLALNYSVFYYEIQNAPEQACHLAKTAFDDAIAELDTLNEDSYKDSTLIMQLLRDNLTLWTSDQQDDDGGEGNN

CN(C)CCSSCCN(C)C(=O)c1ccc(C=O)c(F)c1 [compound 5]
maximum crosslinking efficiency (14-3-3γ/ERRγ/5 complex formation) (14-3-3γ 5 μM, ERRγ 10 μM, 5 50 μM, eight additional phosphopeptides 10 μM each): 35% | increase in total number of 14-3-3/ERRγ complexes in solution (intact MS 35% vs modeled 2.4% ERRγ bound): 15 fold | reduction in crosslinking capacity, peptide mix vs ERRγ in isolation (peptide competitors relative to ERRγ 8:1): ~2 fold
